In patent US10285405B2, “Oil carrying particulate matter and uses thereof” (Nobactra Israel Ltd., priority 2013, dated 2019):

Key:
pepper plants = test: Spraying the emulsions on pepper plants for phytotoxicity symptoms; type: in vivo
The tested bacteria = test: Disc diffusion method, positive control (bacterium not specified); type: cell-based; conditions: positive control 3% H2O2 solution, 27° C., 48 hours
Experimental: Bacteria were grown in nutrient broth test tubes at 27° C. for 24 hrs. The paper discs were sterilized by autoclave in preparation for the disc diffusion method. Each bacteria ([…]), was placed on Nutrient agar (NA) plates and allowed to dry for 3-5 minutes. The paper discs were saturated in 100% concentration of the oregano essential oil (20 ul), and then placed onto each NA plate freshly coated with bacteria. The positive control used was 3% H2O2 solution and the negative control was DI water. The plates were incubated at 27° C. for 48 hours. The zone of inhibition was measured by standard ruler.

[1] = plants sprayed with emulsion of 25% oregano oil with 5% sesame oil made with the emulsifier, data not shown

Molecule	Phytotoxicity on pepper plants (pepper plants; [1])	other results
CCCCCCCCCCCCCCCCCC(=O)[O-].[Na+] [sodium stearate, Sodium Stearate]	very vital	–
Triton X100	phytotoxicity	–
OO [P. control, H2O2]	–	Inhibition zone (mm) (The tested bacteria): 8 mm
CCCCCCCCCCCCOS(=O)(=O)[O-].[Na+] [SDS]	–	Phytotoxicity on pepper plants (pepper plants; in vivo): phytotoxicity
CCCCCCCC/C=C\CCCCCCCC(=O)OCCOCC(OCCO)C1OCC(OCCO)C1OCCO (centres unmarked) [Tween 80]	phytotoxicity	–
